The source made the active and inactive calls. The rule behind the calls is not given here.
Legend:
[1] = molecular target: cGMP-dependent protein kinase 2 (Homo sapiens) (UniProt Q13237)
[2] = molecular target: Tyrosine-protein kinase Fer (Homo sapiens) (UniProt P16591)
[3] = molecular target: Histamine H1 receptor (Homo sapiens) (UniProt P35367); settings: Compound concentration 10.0 uM
[4] = molecular target: Cyclin-dependent kinase 11B (Homo sapiens) (UniProt P21127)
[5] = molecular target: Mitogen-activated protein kinase 1 (Homo sapiens, UniProt P28482); assay: ERK Biochemical Assay
[6] = molecular target: Ephrin type-B receptor 4 (Homo sapiens) (UniProt P54760)
[7] = molecular target: Ephrin type-A receptor 7 (Homo sapiens) (UniProt Q15375)
Chain of Ephrin type-A receptor 7 (Homo sapiens) (Q15375 28-998 limits assumed): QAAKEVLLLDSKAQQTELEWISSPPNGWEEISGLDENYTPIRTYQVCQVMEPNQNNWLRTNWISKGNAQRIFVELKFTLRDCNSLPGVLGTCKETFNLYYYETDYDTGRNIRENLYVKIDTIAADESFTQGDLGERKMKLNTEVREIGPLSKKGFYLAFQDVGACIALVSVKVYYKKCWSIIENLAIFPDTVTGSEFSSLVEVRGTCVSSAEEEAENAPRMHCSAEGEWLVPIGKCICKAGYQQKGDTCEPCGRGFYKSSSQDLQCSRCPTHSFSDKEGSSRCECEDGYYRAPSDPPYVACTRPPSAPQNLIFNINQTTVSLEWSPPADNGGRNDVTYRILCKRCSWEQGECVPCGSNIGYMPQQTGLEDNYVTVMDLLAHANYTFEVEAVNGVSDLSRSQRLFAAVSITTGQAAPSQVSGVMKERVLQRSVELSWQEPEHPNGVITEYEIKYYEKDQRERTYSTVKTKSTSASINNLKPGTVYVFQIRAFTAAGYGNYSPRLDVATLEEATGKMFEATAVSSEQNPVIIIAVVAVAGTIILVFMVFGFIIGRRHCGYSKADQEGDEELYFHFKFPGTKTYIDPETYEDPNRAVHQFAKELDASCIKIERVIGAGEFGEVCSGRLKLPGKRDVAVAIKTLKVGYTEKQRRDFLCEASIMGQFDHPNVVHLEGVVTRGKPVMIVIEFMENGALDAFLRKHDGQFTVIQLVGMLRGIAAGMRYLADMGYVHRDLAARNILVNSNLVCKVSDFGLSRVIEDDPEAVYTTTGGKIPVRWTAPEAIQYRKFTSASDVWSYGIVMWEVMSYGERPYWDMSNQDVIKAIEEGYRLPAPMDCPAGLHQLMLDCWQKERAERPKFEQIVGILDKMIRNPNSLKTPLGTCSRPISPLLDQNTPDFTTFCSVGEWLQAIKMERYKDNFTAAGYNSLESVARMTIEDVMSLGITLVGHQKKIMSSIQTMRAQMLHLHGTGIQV

[8] = molecular target: Mitogen-activated protein kinase 11 (Homo sapiens) (UniProt Q15759)
Chain of Mitogen-activated protein kinase 11 (Homo sapiens) (Q15759 whole entry): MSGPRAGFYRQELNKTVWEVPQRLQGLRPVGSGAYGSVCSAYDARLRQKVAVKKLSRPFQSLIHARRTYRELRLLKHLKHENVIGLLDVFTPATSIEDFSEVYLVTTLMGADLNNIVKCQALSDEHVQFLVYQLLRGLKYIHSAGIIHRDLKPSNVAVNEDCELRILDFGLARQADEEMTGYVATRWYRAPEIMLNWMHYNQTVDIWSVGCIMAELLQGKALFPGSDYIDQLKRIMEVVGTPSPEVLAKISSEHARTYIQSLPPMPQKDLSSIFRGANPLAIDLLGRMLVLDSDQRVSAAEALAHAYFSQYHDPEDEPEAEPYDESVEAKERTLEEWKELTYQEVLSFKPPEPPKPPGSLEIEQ

[9] = molecular target: Serine/threonine-protein kinase PAK 4 (Homo sapiens) (UniProt O96013)
[10] = molecular target: Serine/threonine-protein kinase DCLK3 (Homo sapiens) (UniProt Q9C098)
[11] = molecular target: Tyrosine-protein kinase TXK (Homo sapiens) (UniProt P42681)
Chain of Tyrosine-protein kinase TXK (Homo sapiens) (P42681 whole entry): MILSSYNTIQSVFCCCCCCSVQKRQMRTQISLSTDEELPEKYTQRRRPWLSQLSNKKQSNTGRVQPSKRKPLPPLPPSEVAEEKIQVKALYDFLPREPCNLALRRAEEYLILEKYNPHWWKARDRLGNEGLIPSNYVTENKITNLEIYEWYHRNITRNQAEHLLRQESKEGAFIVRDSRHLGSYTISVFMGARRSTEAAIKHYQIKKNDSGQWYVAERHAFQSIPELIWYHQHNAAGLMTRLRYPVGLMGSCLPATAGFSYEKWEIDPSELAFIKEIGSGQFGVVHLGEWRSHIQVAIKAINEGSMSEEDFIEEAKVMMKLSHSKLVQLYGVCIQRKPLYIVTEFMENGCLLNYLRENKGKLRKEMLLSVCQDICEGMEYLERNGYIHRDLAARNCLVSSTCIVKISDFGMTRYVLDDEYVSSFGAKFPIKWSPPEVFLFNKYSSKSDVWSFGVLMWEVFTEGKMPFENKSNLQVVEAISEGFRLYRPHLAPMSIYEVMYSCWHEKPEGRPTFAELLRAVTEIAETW

[12] = molecular target: Serine/threonine-protein kinase Nek4 (Homo sapiens) (UniProt P51957)
Chain of Serine/threonine-protein kinase Nek4 (Homo sapiens) (P51957 whole entry, looked up): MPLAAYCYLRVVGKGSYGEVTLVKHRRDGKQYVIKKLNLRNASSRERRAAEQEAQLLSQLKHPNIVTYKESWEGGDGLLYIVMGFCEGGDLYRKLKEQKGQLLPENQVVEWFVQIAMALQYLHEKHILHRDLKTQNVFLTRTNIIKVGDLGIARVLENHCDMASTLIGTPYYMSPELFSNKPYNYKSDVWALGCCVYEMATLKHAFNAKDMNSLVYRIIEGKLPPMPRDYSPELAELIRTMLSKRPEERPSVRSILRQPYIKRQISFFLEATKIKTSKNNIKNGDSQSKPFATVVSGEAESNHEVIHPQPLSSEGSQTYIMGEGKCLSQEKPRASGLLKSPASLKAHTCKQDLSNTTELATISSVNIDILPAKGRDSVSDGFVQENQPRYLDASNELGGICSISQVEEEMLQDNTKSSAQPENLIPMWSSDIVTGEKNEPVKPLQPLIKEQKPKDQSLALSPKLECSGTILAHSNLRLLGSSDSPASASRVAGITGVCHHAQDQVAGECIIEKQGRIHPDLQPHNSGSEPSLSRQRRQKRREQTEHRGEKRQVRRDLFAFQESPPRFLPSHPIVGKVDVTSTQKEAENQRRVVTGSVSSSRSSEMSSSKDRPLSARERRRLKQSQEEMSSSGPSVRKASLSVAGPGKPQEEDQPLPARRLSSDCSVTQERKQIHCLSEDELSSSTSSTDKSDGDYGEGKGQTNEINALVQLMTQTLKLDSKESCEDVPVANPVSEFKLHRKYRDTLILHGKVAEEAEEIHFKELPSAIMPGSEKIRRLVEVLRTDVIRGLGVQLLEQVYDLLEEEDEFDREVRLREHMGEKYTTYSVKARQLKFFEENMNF

[13] = molecular target: Calcium/calmodulin-dependent protein kinase type II subunit alpha (Homo sapiens) (UniProt Q9UQM7)
[14] = molecular target: Serine/threonine-protein kinase 32B (Homo sapiens) (UniProt Q9NY57)
Chain of Serine/threonine-protein kinase 32B (Homo sapiens) (Q9NY57 whole entry): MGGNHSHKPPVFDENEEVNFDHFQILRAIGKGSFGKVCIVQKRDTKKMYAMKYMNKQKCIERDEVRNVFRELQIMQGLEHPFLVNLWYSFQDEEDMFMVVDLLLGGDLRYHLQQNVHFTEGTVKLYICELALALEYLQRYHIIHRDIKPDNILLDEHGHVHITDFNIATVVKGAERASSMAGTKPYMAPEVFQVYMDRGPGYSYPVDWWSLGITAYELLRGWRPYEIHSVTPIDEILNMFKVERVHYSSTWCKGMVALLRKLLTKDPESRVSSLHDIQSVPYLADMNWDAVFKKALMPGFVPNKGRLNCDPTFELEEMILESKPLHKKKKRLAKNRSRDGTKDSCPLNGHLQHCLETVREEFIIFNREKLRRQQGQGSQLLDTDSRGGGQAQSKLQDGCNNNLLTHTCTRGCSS

[15] = molecular target: Dual specificity mitogen-activated protein kinase kinase 6 (Homo sapiens) (UniProt P52564)
[16] = molecular target: Serine/threonine-protein kinase Nek6 (Homo sapiens) (UniProt Q9HC98)
[17] = molecular target: Tyrosine-protein kinase JAK2 (Homo sapiens) (UniProt O60674)
[18] = molecular target: Serine/threonine-protein kinase PAK 3 (Homo sapiens) (UniProt O75914)
[19] = molecular target: Phosphatidylinositol 4,5-bisphosphate 3-kinase catalytic subunit gamma isoform (Homo sapiens) (UniProt P48736)
[20] = molecular target: Cyclin-dependent kinase 8 (Homo sapiens) (UniProt P49336)
[21] = molecular target: Serine/threonine-protein kinase TBK1 (Homo sapiens) (UniProt Q9UHD2)
Chain of Serine/threonine-protein kinase TBK1 (Homo sapiens) (Q9UHD2 whole entry): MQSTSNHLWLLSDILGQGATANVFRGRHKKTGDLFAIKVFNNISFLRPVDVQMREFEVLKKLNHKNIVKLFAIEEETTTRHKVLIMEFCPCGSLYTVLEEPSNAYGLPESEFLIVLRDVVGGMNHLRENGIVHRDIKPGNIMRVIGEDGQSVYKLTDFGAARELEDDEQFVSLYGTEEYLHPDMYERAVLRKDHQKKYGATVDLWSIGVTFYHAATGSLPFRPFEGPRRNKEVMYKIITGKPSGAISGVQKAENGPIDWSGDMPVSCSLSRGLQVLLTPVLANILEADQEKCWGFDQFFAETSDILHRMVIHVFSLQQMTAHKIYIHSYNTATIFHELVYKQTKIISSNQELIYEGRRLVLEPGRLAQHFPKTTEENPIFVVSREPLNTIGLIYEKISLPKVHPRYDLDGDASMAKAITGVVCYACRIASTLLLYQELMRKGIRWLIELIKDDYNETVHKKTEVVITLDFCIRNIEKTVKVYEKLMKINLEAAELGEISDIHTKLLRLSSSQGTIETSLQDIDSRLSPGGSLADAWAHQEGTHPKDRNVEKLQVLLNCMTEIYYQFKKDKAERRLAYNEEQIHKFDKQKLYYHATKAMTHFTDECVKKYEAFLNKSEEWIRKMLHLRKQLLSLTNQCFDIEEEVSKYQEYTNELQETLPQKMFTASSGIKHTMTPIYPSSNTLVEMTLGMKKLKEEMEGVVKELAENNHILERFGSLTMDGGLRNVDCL

[22] = molecular target: Ephrin type-A receptor 1 (Homo sapiens) (UniProt P21709)
[23] = molecular target: Calcium/calmodulin-dependent protein kinase type 1G (Homo sapiens) (UniProt Q96NX5)
[24] = molecular target: Atypical kinase COQ8A, mitochondrial (Homo sapiens) (UniProt Q8NI60)
[25] = molecular target: Tyrosine-protein kinase SYK (Homo sapiens) (UniProt P43405)
[26] = molecular target: Dual specificity protein kinase CLK4 (Homo sapiens, UniProt Q9HAZ1)
[27] = molecular target: Serine/threonine-protein kinase NIM1 (Homo sapiens) (UniProt Q8IY84)
[28] = system: Receptor-type tyrosine-protein kinase FLT3 (Homo sapiens), P36888 [N841I]
[29] = system: Phosphatidylinositol 4,5-bisphosphate 3-kinase catalytic subunit alpha isoform (Homo sapiens), P42336 [M1043I]
Chain of Phosphatidylinositol 4,5-bisphosphate 3-kinase catalytic subunit alpha isoform (Homo sapiens), P42336 [M1043I] (P42336 whole entry M1043I, canonical isoform): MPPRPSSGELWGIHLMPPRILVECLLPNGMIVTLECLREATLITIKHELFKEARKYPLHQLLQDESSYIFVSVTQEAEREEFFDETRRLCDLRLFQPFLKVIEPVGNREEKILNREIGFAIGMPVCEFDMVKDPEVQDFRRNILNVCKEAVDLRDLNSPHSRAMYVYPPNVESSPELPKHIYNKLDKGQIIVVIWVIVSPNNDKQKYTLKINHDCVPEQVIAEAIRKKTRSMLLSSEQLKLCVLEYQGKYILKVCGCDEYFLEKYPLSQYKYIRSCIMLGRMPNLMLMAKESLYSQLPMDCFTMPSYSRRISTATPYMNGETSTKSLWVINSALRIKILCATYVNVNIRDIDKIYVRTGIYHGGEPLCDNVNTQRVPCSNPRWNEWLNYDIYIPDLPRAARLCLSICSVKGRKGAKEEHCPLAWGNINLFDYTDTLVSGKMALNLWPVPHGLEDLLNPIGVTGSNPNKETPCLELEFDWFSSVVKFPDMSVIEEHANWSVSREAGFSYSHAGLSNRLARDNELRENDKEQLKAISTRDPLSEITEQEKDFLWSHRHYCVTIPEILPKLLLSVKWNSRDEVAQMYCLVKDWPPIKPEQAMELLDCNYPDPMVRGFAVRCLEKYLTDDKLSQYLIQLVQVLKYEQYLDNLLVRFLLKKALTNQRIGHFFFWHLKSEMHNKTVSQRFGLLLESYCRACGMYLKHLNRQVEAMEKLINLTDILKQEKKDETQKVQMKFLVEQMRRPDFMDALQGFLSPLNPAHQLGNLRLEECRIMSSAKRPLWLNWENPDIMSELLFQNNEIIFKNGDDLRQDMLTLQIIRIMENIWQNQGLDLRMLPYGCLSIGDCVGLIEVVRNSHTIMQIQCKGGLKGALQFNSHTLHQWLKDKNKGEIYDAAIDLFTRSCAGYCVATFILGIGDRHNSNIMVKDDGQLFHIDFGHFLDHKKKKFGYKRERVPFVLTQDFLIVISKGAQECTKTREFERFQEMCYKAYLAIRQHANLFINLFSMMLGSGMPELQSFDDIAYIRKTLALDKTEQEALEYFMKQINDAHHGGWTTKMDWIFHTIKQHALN

[30] = system: Tyrosine-protein kinase ABL1 (Homo sapiens), P00519 [Y253F]
[31] = molecular target: Serine/threonine-protein kinase D3 (Homo sapiens) (UniProt O94806)
[32] = molecular target: Tyrosine-protein kinase Blk (Homo sapiens) (UniProt P51451)
[33] = molecular target: Serine/threonine-protein kinase MRCK beta (Homo sapiens) (UniProt Q9Y5S2)
[34] = molecular target: 5-hydroxytryptamine receptor 2C (Homo sapiens) (UniProt P28335); settings: Compound concentration 10.0 uM
[35] = molecular target: Death-associated protein kinase 2 (Homo sapiens) (UniProt Q9UIK4)
[36] = molecular target: Wee1-like protein kinase (Homo sapiens) (UniProt P30291)
[37] = molecular target: Tyrosine-protein kinase Lyn (Homo sapiens) (UniProt P07948)
[38] = molecular target: Mitogen-activated protein kinase kinase kinase 3 (Homo sapiens) (UniProt Q99759)
[39] = molecular target: Serine/threonine-protein kinase RIO1 (Homo sapiens) (UniProt Q9BRS2)
[40] = molecular target: Tyrosine-protein kinase JAK3 (Homo sapiens) (UniProt P52333)
[41] = system: Tyrosine-protein kinase ABL1 (Homo sapiens), P00519 [F317I]
[42] = molecular target: Serine/threonine-protein kinase Nek3 (Homo sapiens) (UniProt P51956)
[43] = system: Receptor-type tyrosine-protein kinase FLT3 (Homo sapiens), P36888 [K663Q]
[44] = molecular target: LIM domain kinase 1 (Homo sapiens) (UniProt P53667)
[45] = molecular target: Tyrosine-protein kinase Srms (Homo sapiens) (UniProt Q9H3Y6)
[46] = Compound concentration 1000.0 nM
[47] = Compound concentration 100.0 nM

Structure (SMILES): C[C@H](NC(=O)Nc1cc2[nH]ncc2c(CO)n1)c1ccccn1 [ERKi-NC]
- residual activity [1, 46]: 100%
- residual activity [2, 46]: 88.8%
- inhibition [3]: 4.18%
- residual activity [4, 46]: 94.2%
- IC50 [5]: 1.78 µM (not active)
- residual activity [6, 46]: 100%
- residual activity [7, 46]: 97.3%
- residual activity [8, 46]: 100%
- residual activity [9, 46]: 90.2%
- residual activity [10, 46]: 84.5%
- residual activity [11, 46]: 51%
- residual activity [12, 46]: 83.9%
- residual activity [13, 46]: 100%
- residual activity [14, 46]: 100%
- residual activity [15, 46]: 100%
- residual activity [16, 46]: 100%
- residual activity [17, 46]: 100%
- residual activity [18, 46]: 100%
- residual activity [19, 46]: 100%
- residual activity [20, 46]: 100%
- residual activity [21, 46]: 48.3%
- residual activity [22, 46]: 100%
- residual activity [23, 46]: 100%
- residual activity [24, 46]: 96.3%
- residual activity [25, 46]: 100%
- residual activity [26, 46]: 78.8%
- residual activity [27, 46]: 100%
- residual activity [28, 46]: 100%
- residual activity [29, 46]: 37.7%
- residual activity [30, 46]: 100%
- residual activity [31, 46]: 100%
- residual activity [32, 46]: 100%
- residual activity [33, 46]: 100%
- inhibition [34]: 13.6%
- residual activity [35, 46]: 100%
- residual activity [36, 46]: 100%
- residual activity [37, 46]: 100%
- residual activity [38, 46]: 100%
- residual activity [39, 46]: 100%
- residual activity [40, 46]: 100%
- residual activity [41, 46]: 100%
- residual activity [42, 46]: 46.8%
- residual activity [43, 46]: 93.5%
- residual activity [44, 46]: 100%
- residual activity [45, 46]: 84%

Structure (SMILES): C[C@@H](NC(=O)Nc1cc2[nH]ncc2c(CO)n1)c1ccccc1 [ERKi]
- residual activity [1, 47]: 76.1%
- residual activity [2, 47]: 100%
- inhibition [3]: -7.28%
- residual activity [4, 47]: 97.4%
- IC50 [5]: 0.0018 µM (active)
- residual activity [6, 47]: 87.6%
- residual activity [7, 47]: 91.1%
- residual activity [8, 47]: 100%
- residual activity [9, 47]: 93.7%
- residual activity [10, 47]: 97.1%
- residual activity [11, 47]: 100%
- residual activity [12, 47]: 86.6%
- residual activity [13, 47]: 73.5%
- residual activity [14, 47]: 96.6%
- residual activity [15, 47]: 81.4%
- residual activity [16, 47]: 98.9%
- residual activity [17, 47]: 93.7%
- residual activity [18, 47]: 100%
- residual activity [19, 47]: 96.4%
- residual activity [20, 47]: 76.1%
- residual activity [21, 47]: 84.8%
- residual activity [22, 47]: 100%
- residual activity [23, 47]: 70.6%
- residual activity [24, 47]: 89.6%
- residual activity [25, 47]: 100%
- residual activity [26, 47]: 66.6%
- residual activity [27, 47]: 100%
- residual activity [28, 47]: 88.2%
- residual activity [29, 47]: 100%
- residual activity [30, 47]: 76.2%
- residual activity [31, 47]: 100%
- residual activity [32, 47]: 100%
- residual activity [33, 47]: 99.8%
- inhibition [34]: 26.3%
- residual activity [35, 47]: 66.3%
- residual activity [36, 47]: 98.9%
- residual activity [37, 47]: 84.5%
- residual activity [38, 47]: 82.1%
- residual activity [39, 47]: 100%
- residual activity [40, 47]: 64.5%
- residual activity [41, 47]: 80.2%
- residual activity [42, 47]: 79.6%
- residual activity [43, 47]: 96.5%
- residual activity [44, 47]: 94.1%
- residual activity [45, 47]: 87.1%

Source: ChEMBL document CHEMBL4507286 (2021)
